Source: ChEMBL document CHEMBL2203256, “Design and evaluation of azaindole-substituted N-hydroxypyridones as glyoxalase I inhibitors” (Bioorg Med Chem Lett, 2012)

Tests used:
[1] = molecular target: Lactoylglutathione lyase (Homo sapiens, UniProt Q04760); experiment: Inhibition of human recombinant GLO1 expressed in Escherichia coli BL21 assessed as decrease in reduced glutathione level after 1 hr by Ellman's method
[2] = Half life in mouse serum at […]; format: ADME, cell-free
[3] = test system: Liver; experiment: Clearance in mouse liver microsomes assessed per mg of protein at 1 uM after 30 mins in presence of NADPH; format: ADME, Microsome; settings: 0.5 h
[4] = test system: Liver; experiment: Clearance in mouse liver microsomes assessed per mg of protein at 1 uM after 30 mins in absence of NADPH; format: ADME, Microsome; settings: 0.5 h
[5] = test system: Liver microsomes; experiment: Clearance in human liver microsomes assessed per mg of protein at 1 uM after 30 mins in presence of NADPH; format: ADME, Microsome; settings: 0.5 h
[6] = Half life in human serum at […]; format: ADME, cell-free
[7] = test system: Liver microsomes; experiment: Clearance in human liver microsomes assessed per mg of protein at 1 uM after 30 mins in absence of NADPH; format: ADME, Microsome; settings: 0.5 h

Sequence of Lactoylglutathione lyase (Q04760 whole entry): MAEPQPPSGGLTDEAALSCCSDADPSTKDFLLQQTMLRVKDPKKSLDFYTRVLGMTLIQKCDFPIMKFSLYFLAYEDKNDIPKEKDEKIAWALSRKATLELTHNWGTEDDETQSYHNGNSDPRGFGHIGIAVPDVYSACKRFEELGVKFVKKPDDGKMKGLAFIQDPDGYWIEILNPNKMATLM

Compound	IC50 [1] [nM]	also measured
O=c1cc(-c2ccsc2)cc(-c2ccccc2)n1O	1520	
O=c1cc(-c2cccnc2)cc(-c2ccccc2)n1O	8280	
COCCCn1ccc2cc(-c3cc(-c4ccccc4)cc(=O)n3O)ccc21	300	
CCC#Cc1cc(-c2ccccc2)n(O)c(=O)c1	> 10000	
O=c1cc(-c2ccc(C(F)(F)F)cc2)cc(-c2ccccc2)n1O	8130	
CCCCCn1ccc2cc(-c3cc(-c4ccccc4)cc(=O)n3O)cnc21	510	
CCCCc1cc(-c2ccccc2)n(O)c(=O)c1	> 10000	
NC(=O)c1cccc(Cn2ccc3cc(-c4cc(-c5ccccc5)cc(=O)n4O)ccc32)c1	480	
O=c1cc(-c2ccc(-c3ccccc3)cc2)cc(-c2ccccc2)n1O	8400	
CCCCn1ccc2cc(-c3cc(-c4ccccc4)cc(=O)n3O)cnc21	300	
O=c1cc(-c2ccccc2)cc(-c2ccccc2)n1O	1190	half-life [2]: 7.33 h; CLint [3]: 28 µL/min/mg; CLint [4]: 6.8 µL/min/mg; CLint [5]: 16 µL/min/mg; half-life [6]: 48.3 h; CLint [7]: 6.6 µL/min/mg

Now those with a lower IC50 [1], led by results:

IC50 [1] [nM]	Compound	also measured
280	O=c1cc(-c2ccccc2)cc(-c2cnc3[nH]ccc3c2)n1O	
260	COCCn1ccc2cc(-c3cc(-c4ccccc4)cc(=O)n3O)ccc21	
250	O=c1cc(-c2ccccc2)cc(-c2ccc3[nH]ccc3c2)n1O	
40	NC(=O)c1cccc(Cn2ccc3cc(-c4cc(-c5ccccc5)cc(=O)n4O)cnc32)c1	
14	COCCn1ccc2cc(-c3cc(-c4ccccc4)cc(=O)n3O)cnc21	
